Columns and labels:
human recombinant HDAC1 = biological target: T1, human recombinant HDAC1 (Homo sapiens, UniProt Q13547); assay: HDAC1 enzyme activity inhibition assay (HDAC Fluorimetric Drug Discovery Kit); assay type: biochemical; details: human recombinant HDAC1, Fluor de Lys substrate 10 μM, 30° C. 60 minutes
T1 construct: purchased Enzo Life Science BML-SE456
Outline: (§1)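 Fluorimetric deacetylase assay: 5-fold serial compound dilutions, 0.3 μg recombinant human enzyme (HDAC1 or HDAC6, same protocol), 10 μM Fluor de Lys-SIRT1 substrate, 60 min at 30 °C. Signal developed 30 min, measured at 360/460 nm; IC50 values derived.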

human recombinant HDAC6 = biological target: T2, human recombinant HDAC6 (Homo sapiens, UniProt Q9UBN7); assay: HDAC6 enzyme activity inhibition assay (HDAC Fluorimetric Drug Discovery Kit); assay type: biochemical; details: for HDAC6 selectivity (fold): HDAC6 over HDAC1; for IC50: human recombinant HDAC6, same protocol as HDAC1, read-out: HDAC6
T2 construct: purchased Calbiochem 382180
T2 sequence (Q9UBN7 1-1215): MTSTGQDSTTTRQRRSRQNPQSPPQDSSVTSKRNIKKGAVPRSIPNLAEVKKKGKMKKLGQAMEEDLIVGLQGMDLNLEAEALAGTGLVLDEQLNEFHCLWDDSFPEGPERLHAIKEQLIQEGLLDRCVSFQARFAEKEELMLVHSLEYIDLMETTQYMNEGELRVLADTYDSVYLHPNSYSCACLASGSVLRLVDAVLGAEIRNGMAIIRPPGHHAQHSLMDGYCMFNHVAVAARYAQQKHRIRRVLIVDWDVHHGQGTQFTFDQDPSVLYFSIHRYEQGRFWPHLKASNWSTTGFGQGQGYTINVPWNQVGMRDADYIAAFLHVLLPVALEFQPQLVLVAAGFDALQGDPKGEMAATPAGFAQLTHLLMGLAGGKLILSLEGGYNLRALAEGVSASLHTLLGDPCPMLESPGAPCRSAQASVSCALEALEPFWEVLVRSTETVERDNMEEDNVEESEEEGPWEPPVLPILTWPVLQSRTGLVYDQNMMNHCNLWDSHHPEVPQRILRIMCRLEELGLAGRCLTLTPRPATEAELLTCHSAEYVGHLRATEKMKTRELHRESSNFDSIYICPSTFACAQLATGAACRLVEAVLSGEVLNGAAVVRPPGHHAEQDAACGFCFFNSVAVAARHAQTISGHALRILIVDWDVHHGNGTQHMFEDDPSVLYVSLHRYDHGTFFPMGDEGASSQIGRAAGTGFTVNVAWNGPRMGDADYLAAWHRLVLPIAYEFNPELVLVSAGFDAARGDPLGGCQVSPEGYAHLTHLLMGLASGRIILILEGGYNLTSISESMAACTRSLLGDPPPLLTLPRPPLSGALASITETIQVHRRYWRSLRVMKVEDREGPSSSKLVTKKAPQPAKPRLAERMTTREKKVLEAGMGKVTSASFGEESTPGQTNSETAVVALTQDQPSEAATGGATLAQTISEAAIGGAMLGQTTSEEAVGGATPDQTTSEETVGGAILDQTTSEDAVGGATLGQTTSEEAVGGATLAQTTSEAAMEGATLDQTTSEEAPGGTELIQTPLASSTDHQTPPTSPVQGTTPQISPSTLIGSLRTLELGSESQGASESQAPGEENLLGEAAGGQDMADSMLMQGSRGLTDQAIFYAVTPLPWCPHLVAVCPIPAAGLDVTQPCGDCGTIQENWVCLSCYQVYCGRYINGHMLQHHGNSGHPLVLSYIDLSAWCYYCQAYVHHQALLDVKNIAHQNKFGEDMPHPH
Outline: as §1

T1 sequence (Q13547 whole entry): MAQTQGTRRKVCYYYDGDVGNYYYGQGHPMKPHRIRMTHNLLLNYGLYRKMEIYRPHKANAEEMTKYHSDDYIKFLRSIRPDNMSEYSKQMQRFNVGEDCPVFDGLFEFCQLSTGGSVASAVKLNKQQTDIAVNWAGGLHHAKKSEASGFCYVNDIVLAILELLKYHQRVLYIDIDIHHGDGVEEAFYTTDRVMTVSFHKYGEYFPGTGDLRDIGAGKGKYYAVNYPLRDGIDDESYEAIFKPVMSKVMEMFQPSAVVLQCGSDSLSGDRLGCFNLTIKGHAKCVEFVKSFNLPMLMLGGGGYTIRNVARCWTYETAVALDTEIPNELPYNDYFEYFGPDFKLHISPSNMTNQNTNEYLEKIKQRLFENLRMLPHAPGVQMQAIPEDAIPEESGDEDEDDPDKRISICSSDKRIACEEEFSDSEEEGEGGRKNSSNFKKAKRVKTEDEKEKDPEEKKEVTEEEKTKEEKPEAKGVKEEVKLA

With `Cn1ncc2ccc(N(Cc3ccc(-c4nnc(C(F)F)o4)cc3F)C(=O)N3CCOCC3)cc21` [Compound 21724, N-(4-(5-(Difluoromethyl)-1,3,4-oxadiazol-2-yl)-2-fluorobenzyl)-N-(1-methyl-1H-indazol-6-yl)morpholine-4-carboxamide] the IC50 (human recombinant HDAC1) was 20.7 µM, the “HDAC6 selectivity (fold)” value (human recombinant HDAC6) was 736 fold and the IC50 (human recombinant HDAC6) was 0.028 µM.
With `CCN1CCN(C(=O)N(Cc2ccc(-c3nnc(C(F)F)o3)cc2F)c2ccc3cnn(C)c3c2)CC1` [Compound 21735, N-(4-(5-(difluoromethyl)-1,3,4-oxadiazol-2-yl)-2-fluorobenzyl)-4-ethyl-N-(1-methyl-1H-indazol-6-yl)piperazine-1-carboxamide] the IC50 (human recombinant HDAC1) was 19.1 µM, the “HDAC6 selectivity (fold)” value (human recombinant HDAC6) was 662 fold and the IC50 (human recombinant HDAC6) was 0.029 µM.
For `CN(C)[C@@H]1CCN(C(=O)N(Cc2ccc(-c3nnc(C(F)F)o3)cc2F)c2ccc3cnn(C)c3c2)C1` [Compound 21736, (R)—N-(4-(5-(difluoromethyl)-1,3,4-oxadiazol-2-yl)-2-fluorobenzyl)-3-(dimethylamino)-N-(1-methyl-1H-indazol-6-yl)pyrrolidine-1-carboxamide], the IC50 (human recombinant HDAC1) was 17.7 µM, the “HDAC6 selectivity (fold)” value (human recombinant HDAC6) was 432 fold and the IC50 (human recombinant HDAC6) was 0.041 µM.
In the case of `O=C(N1CCS(=O)(=O)CC1)N(Cc1ccc(-c2nnc(C(F)F)o2)cc1F)c1ccccc1F` [Compound 21808, N-(4-(5-(difluoromethyl)-1,3,4-oxadiazol-2-yl)-2-fluorobenzyl)-N-(2-fluorophenyl)thiomorpholine-4-carboxamide 1,1-dioxide], the IC50 (human recombinant HDAC1) is reported as 42.6 µM, the “HDAC6 selectivity (fold)” value (human recombinant HDAC6) is reported as 2023 fold and the IC50 (human recombinant HDAC6) is reported as 0.021 µM.
With `O=C(N1CCS(=O)(=O)CC1)N(Cc1ccc(-c2nnc(C(F)F)o2)cc1F)c1cccc(Cl)c1` [Compound 21810, N-(3-chlorophenyl)-N-(4-(5-(difluoromethyl)-1,3,4-oxadiazol-2-yl)-2-fluorobenzyl)thiomorpholine-4-carboxamide 1,1-dioxide] the IC50 (human recombinant HDAC1) was 15.7 µM, the “HDAC6 selectivity (fold)” value (human recombinant HDAC6) was 883 fold and the IC50 (human recombinant HDAC6) was 0.018 µM.
For `O=C(N1CCS(=O)(=O)CC1)N(Cc1ccc(-c2nnc(C(F)F)o2)cn1)c1ccc(-c2ccncc2)cc1` [Compound 21823, N-((5-(5-(difluoromethyl)-1,3,4-oxadiazol-2-yl)pyridin-2-yl)methyl)-N-(4-(pyridin-4-yl)phenyl)thiomorpholine-4-carboxamide 1,1-dioxide], the IC50 (human recombinant HDAC1) was 20.8 µM, the “HDAC6 selectivity (fold)” value (human recombinant HDAC6) was 370 fold and the IC50 (human recombinant HDAC6) was 0.056 µM.
With `O=C(N1CCS(=O)(=O)CC1)N(Cc1ccc(-c2nnc(C(F)F)o2)cn1)c1ccc(-c2cccnc2)cc1` [Compound 21824, N-((5-(5-(difluoromethyl)-1,3,4-oxadiazol-2-yl)pyridin-2-yl)methyl)-N-(4-(pyridin-3-yl)phenyl)thiomorpholine-4-carboxamide 1,1-dioxide] the IC50 (human recombinant HDAC1) was 17.7 µM, the “HDAC6 selectivity (fold)” value (human recombinant HDAC6) was 563 fold and the IC50 (human recombinant HDAC6) was 0.031 µM.
`O=C(N1CCS(=O)(=O)CC1)N(Cc1ccc(-c2nnc(C(F)F)o2)cn1)c1ccc(F)cc1` [Compound 21829, N-((5-(5-(difluoromethyl)-1,3,4-oxadiazol-2-yl)pyridin-2-yl)methyl)-N-(4-fluorophenyl)thiomorpholine-4-carboxamide 1,1-dioxide] was tested, and the IC50 (human recombinant HDAC1) was 47 µM, the “HDAC6 selectivity (fold)” value (human recombinant HDAC6) was 1542 fold and the IC50 (human recombinant HDAC6) was 0.031 µM.
In the case of `O=C(N1CCS(=O)(=O)CC1)N(Cc1ccc(-c2nnc(C(F)F)o2)cn1)c1cccc(F)c1` [Compound 21830, N-((5-(5-(difluoromethyl)-1,3,4-oxadiazol-2-yl)pyridin-2-yl)methyl)-N-(3-fluorophenyl)thiomorpholine-4-carboxamide 1,1-dioxide], the IC50 (human recombinant HDAC1) is reported as 40.9 µM, the “HDAC6 selectivity (fold)” value (human recombinant HDAC6) is reported as 1298 fold and the IC50 (human recombinant HDAC6) is reported as 0.032 µM.
With `O=C(N1CCS(=O)(=O)CC1)N(Cc1ccc(-c2nnc(C(F)F)o2)cn1)c1ccc(Cl)cc1` [Compound 21831, N-(4-chlorophenyl)-N-((5-(5-(difluoromethyl)-1,3,4-oxadiazol-2-yl)pyridin-2-yl)methyl)thiomorpholine-4-carboxamide 1,1-dioxide] the IC50 (human recombinant HDAC1) was 64.4 µM, the “HDAC6 selectivity (fold)” value (human recombinant HDAC6) was 1538 fold and the IC50 (human recombinant HDAC6) was 0.042 µM.
In the case of `O=C(N1CCOCC1)N(Cc1ccc(-c2nnc(C(F)F)o2)cn1)c1ccc(F)cc1` [Compound 21839, N-((5-(5-(difluoromethyl)-1,3,4-oxadiazol-2-yl)pyridin-2-yl)methyl)-N-(4-fluorophenyl) morpholine-4-carboxamide], the IC50 (human recombinant HDAC1) is reported as 56.7 µM, the “HDAC6 selectivity (fold)” value (human recombinant HDAC6) is reported as 1689 fold and the IC50 (human recombinant HDAC6) is reported as 0.034 µM.
For `O=C(N1CCOCC1)N(Cc1ccc(-c2nnc(C(F)(F)F)o2)cn1)c1ccc(F)cc1` [Compound 21840, N-(4-fluorophenyl)-N-((5-(5-(trifluoromethyl)-1,3,4-oxadiazol-2-yl)pyridin-2-yl)methyl) morpholine-4-carboxamide], the IC50 (human recombinant HDAC1) was 31.9 µM, the “HDAC6 selectivity (fold)” value (human recombinant HDAC6) was 170 fold and the IC50 (human recombinant HDAC6) was 0.188 µM.
In the case of `O=C(N1CCOCC1)N(Cc1ccc(-c2nnc(C(F)(F)F)o2)cc1F)c1ccc(F)cc1` [Compound 21842, N-(2-fluoro-4-(5-(trifluoromethyl)-1,3,4-oxadiazol-2-yl)benzyl)-N-(4-fluorophenyl)morpholine-4-carboxamide], the IC50 (human recombinant HDAC1) is reported as 25.2 µM, the “HDAC6 selectivity (fold)” value (human recombinant HDAC6) is reported as 135 fold and the IC50 (human recombinant HDAC6) is reported as 0.187 µM.
For `O=C(N1CCOCC1)N(Cc1ccc(-c2nnc(C(F)(F)F)o2)cn1)c1cccc(F)c1` [Compound 21844, N-(3-fluorophenyl)-N-((5-(5-(trifluoromethyl)-1,3,4-oxadiazol-2-yl)pyridin-2-yl)methyl) morpholine-4-carboxamide], the IC50 (human recombinant HDAC1) was 32.3 µM, the “HDAC6 selectivity (fold)” value (human recombinant HDAC6) was 404 fold and the IC50 (human recombinant HDAC6) was 0.08 µM.
With `O=C(N1CCOCC1)N(Cc1ccc(-c2nnc(C(F)F)o2)cc1F)c1cccc(F)c1` [Compound 21845, N-(4-(5-(difluoromethyl)-1,3,4-oxadiazol-2-yl)-2-fluorobenzyl)-N-(3-fluorophenyl)morpholine-4-carboxamide] the IC50 (human recombinant HDAC1) was 62.3 µM, the “HDAC6 selectivity (fold)” value (human recombinant HDAC6) was 1919 fold and the IC50 (human recombinant HDAC6) was 0.032 µM.
In the case of `O=C(N1CCOCC1)N(Cc1ccc(-c2nnc(C(F)(F)F)o2)cc1F)c1cccc(F)c1` [Compound 21846, N-(2-fluoro-4-(5-(trifluoromethyl)-1,3,4-oxadiazol-2-yl)benzyl)-N-(3-fluorophenyl)morpholine-4-carboxamide], the IC50 (human recombinant HDAC1) is reported as 21.3 µM, the “HDAC6 selectivity (fold)” value (human recombinant HDAC6) is reported as 173 fold and the IC50 (human recombinant HDAC6) is reported as 0.123 µM.
In the case of `O=C(N1CCOCC1)N(Cc1ccc(-c2nnc(C(F)F)o2)cn1)c1ccc(Cl)cc1` [Compound 21847, N-(4-chlorophenyl)-N-((5-(5-(difluoromethyl)-1,3,4-oxadiazol-2-yl)pyridin-2-yl)methyl) morpholine-4-carboxamide], the IC50 (human recombinant HDAC1) is reported as 70.2 µM, the “HDAC6 selectivity (fold)” value (human recombinant HDAC6) is reported as 1811 fold and the IC50 (human recombinant HDAC6) is reported as 0.039 µM.
`O=C(N1CCOCC1)N(Cc1ccc(-c2nnc(C(F)(F)F)o2)cn1)c1ccc(Cl)cc1` [Compound 21848, N-(4-chlorophenyl)-N-((5-(5-(trifluoromethyl)-1,3,4-oxadiazol-2-yl)pyridin-2-yl)methyl) morpholine-4-carboxamide] was tested, and the IC50 (human recombinant HDAC1) was 41.9 µM, the “HDAC6 selectivity (fold)” value (human recombinant HDAC6) was 161 fold and the IC50 (human recombinant HDAC6) was 0.261 µM.
In the case of `O=C(N1CCOCC1)N(Cc1ccc(-c2nnc(C(F)(F)F)o2)cc1F)c1ccc(Cl)cc1` [Compound 21850, N-(4-chlorophenyl)-N-(2-fluoro-4-(5-(trifluoromethyl)-1,3,4-oxadiazol-2-yl)benzyl)morpholine-4-carboxamide], the IC50 (human recombinant HDAC1) is reported as 68.6 µM, the “HDAC6 selectivity (fold)” value (human recombinant HDAC6) is reported as 157 fold and the IC50 (human recombinant HDAC6) is reported as 0.436 µM.
`O=C(N1CCOCC1)N(Cc1ccc(-c2nnc(C(F)(F)F)o2)cn1)c1cccc(Cl)c1` [Compound 21852, N-(3-chlorophenyl)-N-((5-(5-(trifluoromethyl)-1,3,4-oxadiazol-2-yl)pyridin-2-yl)methyl) morpholine-4-carboxamide] was tested, and the IC50 (human recombinant HDAC1) was 15.3 µM, the “HDAC6 selectivity (fold)” value (human recombinant HDAC6) was 118 fold and the IC50 (human recombinant HDAC6) was 0.131 µM.
